# Values of other authors as cited in patent US20050074468A1, “Topical compositions containing nonimmunosuppressive cyclosporin derivatives for treating hair loss” (priority 2001, published 2005).
# Test system: mouse's back
# Settings: relative to minoxidil
substance,measurement,value
Cyclosporin A,hair regrowth effect superior to minoxidil,about 100 times
